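Values below derive from 48-hour exposures of cells grown in 96-well plates, with endpoints linearly interpolated between the two concentrations bracketing the appropriate inhibition level. GI50 = concentration required for 50% inhibition of growth.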 The source made the active and inactive calls. Cut-off read from the data, not from the text of the source: active = GI50 up to about 1.1 µM and inactive = higher.

The term GI50 denotes the concentration at which growth is held to half of that of the control.

Among the test systems are A498; NCI-H23; TK-10; M14; SW-620; 786-0; BT-549; Malme-3M; SK-OV-3; OVCAR-3; NCI-H522; NCI-H460; HCT-15; HOP-92; Hs-578T; IGROV-1; SNB-75; COLO 205; SK-MEL-5.
Common to all, as to assay: DTP human tumour cell line panel, 48 h

For `COc1ccc(-n2c(CCCC(=O)O)nc3c2C(=O)c2ccccc2C3=O)cc1`, the GI50 in the assay with A498 was > 100 µM (inactive); in the assay with NCI-H23 it was 44.1 µM (inactive); in the assay on TK-10 it was > 100 µM (inactive); in the assay with M14, 15.5 µM (inactive); in the assay with SW-620, 56.9 µM (inactive); in the assay on 786-0, > 100 µM (inactive). For the same compound, the GI50 was 8.79 µM (inactive) in the assay with BT-549; 15.2 µM (inactive) in the assay on Malme-3M; > 100 µM (inactive) in the assay with SK-OV-3; 33.3 µM (inactive) in the assay on OVCAR-3; 25.8 µM (inactive) with NCI-H522; 93.1 µM (inactive) in the assay on NCI-H460. The concentration for 50% growth inhibition (GI50) was 44.5 µM with HCT-15; 20.2 µM (inactive) in the assay on HOP-92; > 100 µM (inactive) in the assay on Hs-578T; 79.3 µM (inactive) with IGROV-1; 89.5 µM (inactive) with SNB-75; 37.1 µM (inactive) with COLO 205.
Regarding `COc1ccc2c(c1)nc1n2C(N)=Nc2ccccc2S1`, the GI50 is 37.1 µM (inactive) with A498; 40.6 µM (inactive) with NCI-H23; > 100 µM (inactive) in the assay on TK-10; 10.6 µM (inactive) in the assay on M14; 28.5 µM (inactive) in the assay with SW-620; 9.68 µM (inactive) in the assay with 786-0. For the same compound, the GI50 was 48.2 µM (inactive) in the assay with BT-549; 62.2 µM (inactive) in the assay on Malme-3M; 67 µM (inactive) with SK-OV-3; 5.55 µM (inactive) with OVCAR-3; 16.6 µM (inactive) with NCI-H522; 12.8 µM (inactive) with NCI-H460. In addition, the 50% growth inhibitory concentration (GI50) is 35.4 µM in the assay on HCT-15; 3.79 µM (inactive) with HOP-92; 7.45 µM (inactive) with SK-MEL-5; 61 µM (inactive) in the assay with Hs-578T; 3.75 µM (inactive) with IGROV-1; > 42.9 µM (inactive) with SNB-75. Moreover, in the assay on COLO 205, the GI50 was 6.08 µM (inactive).
For `CCOP(=O)(CCC(O)CNc1nc(N)nc(Cl)c1/N=N/c1ccc(Cl)cc1)OCC` (centres undefined), the GI50 was 10.1 µM (inactive) with A498; 17 µM (inactive) with NCI-H23; 14.8 µM (inactive) with TK-10; 15.9 µM (inactive) in the assay on SW-620; 7.93 µM (inactive) with 786-0; 7.38 µM (inactive) with BT-549. Besides, the GI50 with Malme-3M was 5.2 µM (inactive); in the assay with SK-OV-3, 17.7 µM (inactive); in the assay on OVCAR-3, 10.7 µM (inactive); with NCI-H522, 8.99 µM (inactive); in the assay with NCI-H460, 11.1 µM (inactive); in the assay on HCT-15, 6.95 µM. Further, the GI50 in the assay on HOP-92 is 0.377 µM (active); with SK-MEL-5 it was 12.7 µM (inactive); with Hs-578T it was 5.58 µM (inactive); in the assay with IGROV-1, 15.2 µM (inactive); with SNB-75, 4.5 µM (inactive); with COLO 205 it was 12.8 µM (inactive).
Regarding `COc1cc(C(O)c2ccc3c(c2)OCO3)cc(OC)c1OC` (centres undefined), the GI50 in the assay on A498, in the assay with NCI-H23, in the assay on TK-10, in the assay with M14, in the assay on SW-620 and with 786-0 was > 100 µM (inactive) each time. Besides, the GI50 in the assay with BT-549, in the assay with Malme-3M, in the assay with SK-OV-3, in the assay on OVCAR-3, with NCI-H522 and in the assay on NCI-H460 was > 100 µM (inactive) throughout. Further, the 50% growth inhibitory concentration (GI50) with HCT-15 is greater than 100 µM; in the assay with HOP-92, > 100 µM (inactive); with SK-MEL-5, 80.2 µM (inactive); in the assay on Hs-578T, > 100 µM (inactive); in the assay with IGROV-1 it was > 100 µM (inactive); with SNB-75 it was 73.5 µM (inactive). The GI50 in the assay with COLO 205 is > 100 µM (inactive).
With `CC(C)/C(Cl)=N/OC(NC(=O)Nc1ccc(Cl)c(Cl)c1)(C(F)(F)F)C(F)(F)F`, the GI50 with A498 was 18.2 µM (inactive); with NCI-H23 it was 17.8 µM (inactive); with TK-10, 17.4 µM (inactive); in the assay with M14 it was 5.65 µM (inactive); with SW-620 it was 1.81 µM (inactive); in the assay with 786-0 it was 8.77 µM (inactive). Also, the GI50 in the assay on BT-549 is 11.5 µM (inactive); in the assay with Malme-3M it was 2.37 µM (inactive); with SK-OV-3, 18.2 µM (inactive); in the assay on OVCAR-3, 5.9 µM (inactive); with NCI-H522 it was 1.69 µM (inactive); with NCI-H460, 24.5 µM (inactive). The 50% growth inhibitory concentration (GI50) in the assay with HCT-15 was 13.2 µM; in the assay with HOP-92, 10.4 µM (inactive); in the assay on SK-MEL-5, 15.8 µM (inactive); in the assay on Hs-578T, 28.6 µM (inactive); in the assay on IGROV-1 it was 16.2 µM (inactive); in the assay on SNB-75 it was 16.9 µM (inactive). Moreover, the GI50 in the assay with COLO 205 is 3.17 µM (inactive).
Turning to `C[C@H]1C2Cc3cc(O)ccc3[C@@]1(C)CCN2CCc1ccc(N)cc1`, the GI50 in the assay with A498 was > 100 µM (inactive); with NCI-H23, > 100 µM (inactive); in the assay with TK-10 it was > 100 µM (inactive); with M14 it was 18.4 µM (inactive); in the assay with SW-620, 15.3 µM (inactive); in the assay on 786-0 it was 15.8 µM (inactive). Further, the GI50 in the assay on BT-549 was > 100 µM (inactive); with Malme-3M it was 18.8 µM (inactive); in the assay with SK-OV-3, > 100 µM (inactive); in the assay on OVCAR-3, 14.2 µM (inactive); in the assay on NCI-H522, 19.7 µM (inactive); in the assay with NCI-H460, 30.3 µM (inactive). The GI50 with HCT-15 is 18.2 µM; with HOP-92, 1.71 µM (inactive); with SK-MEL-5, 14.4 µM (inactive); in the assay on Hs-578T, > 100 µM (inactive); in the assay on IGROV-1, 13.6 µM (inactive); with SNB-75, > 100 µM (inactive). In the assay on COLO 205, the GI50 was 28.6 µM (inactive).
`C/C(=N\NC(N)=S)c1nc2cccnc2[nH]1`: the GI50 in the assay on A498 was > 100 µM (inactive); in the assay with TK-10, > 80.4 µM (inactive); in the assay on M14, 63.1 µM (inactive); in the assay on SW-620 it was 56.8 µM (inactive); in the assay with 786-0, 51.8 µM (inactive); with BT-549, 24.9 µM (inactive). In addition, the GI50 in the assay with Malme-3M was > 92.9 µM (inactive); in the assay with SK-OV-3 it was 30.2 µM (inactive); in the assay with OVCAR-3, 31.8 µM (inactive); in the assay on NCI-H522, > 68.5 µM (inactive); in the assay on NCI-H460, 45.7 µM (inactive); in the assay on HCT-15 it was 53.6 µM. In addition, the GI50 with HOP-92 was 98.2 µM (inactive); with SK-MEL-5, 47.3 µM (inactive); in the assay with Hs-578T, > 100 µM (inactive); in the assay with IGROV-1, 82 µM (inactive); with SNB-75, > 100 µM (inactive); in the assay on COLO 205 it was 38.8 µM (inactive).
In the case of `O=c1cc(NNc2cccc(F)c2)[nH]c(=O)[nH]1`, the GI50 was > 100 µM (inactive) with A498; > 100 µM (inactive) in the assay with NCI-H23; 14.2 µM (inactive) in the assay with TK-10; 18.2 µM (inactive) with M14; 18.6 µM (inactive) in the assay with SW-620; 16.6 µM (inactive) in the assay on 786-0. The GI50 in the assay with BT-549 was > 100 µM (inactive); in the assay with Malme-3M, 19.4 µM (inactive); in the assay on SK-OV-3, > 100 µM (inactive); in the assay on OVCAR-3, 16.5 µM (inactive); in the assay on NCI-H522, 18.3 µM (inactive); in the assay on NCI-H460, > 100 µM (inactive). The GI50 in the assay on HCT-15 is 16.9 µM; in the assay with HOP-92, 16.3 µM (inactive); in the assay with SK-MEL-5, > 100 µM (inactive); with Hs-578T, 83 µM (inactive); in the assay on IGROV-1 it was 19.8 µM (inactive); in the assay on SNB-75, > 100 µM (inactive). Besides, the GI50 in the assay with COLO 205 was 34.6 µM (inactive).
Take `Cc1ccc(Nc2nc(=O)c3c([nH]c4ccccc43)s2)cc1`: the GI50 in the assay on A498 is 18.1 µM (inactive); with TK-10, 11.3 µM (inactive); in the assay with M14, 6.59 µM (inactive); in the assay on SW-620, 10.8 µM (inactive); in the assay on 786-0, 14.5 µM (inactive); in the assay on BT-549 it was 18.2 µM (inactive). For the same compound, the GI50 in the assay on Malme-3M is 10.6 µM (inactive); in the assay on SK-OV-3, 28.1 µM (inactive); in the assay with OVCAR-3, 14 µM (inactive); with NCI-H522, 14.6 µM (inactive); with NCI-H460 it was 10.1 µM (inactive); in the assay on HCT-15 it was 7.55 µM. In addition, the GI50 was 10.1 µM (inactive) in the assay with HOP-92; 8.32 µM (inactive) in the assay with SK-MEL-5; 27.2 µM (inactive) with Hs-578T; 13.7 µM (inactive) in the assay with IGROV-1; 16.1 µM (inactive) in the assay with SNB-75; 10.9 µM (inactive) with COLO 205.
`COc1ccccc1/[N+]([O-])=C/c1ccccc1OC(=S)S`: the GI50 with A498 is 32.4 µM (inactive); in the assay on NCI-H23, 28.2 µM (inactive); in the assay with TK-10, > 100 µM (inactive); in the assay with M14, 41.1 µM (inactive); in the assay with SW-620 it was 44.5 µM (inactive); with 786-0 it was 26.5 µM (inactive). Also, the GI50 in the assay with BT-549 is 25.9 µM (inactive); with Malme-3M, 96.4 µM (inactive); in the assay on SK-OV-3, > 100 µM (inactive); in the assay on OVCAR-3, 26.2 µM (inactive); in the assay on NCI-H522, 22.3 µM (inactive); with NCI-H460, 64.9 µM (inactive). The 50% growth inhibitory concentration (GI50) was 23 µM in the assay with HCT-15; 19 µM (inactive) in the assay with HOP-92; 34.2 µM (inactive) in the assay on SK-MEL-5; 73.6 µM (inactive) in the assay with Hs-578T; 19.6 µM (inactive) in the assay with IGROV-1; 25.8 µM (inactive) in the assay on SNB-75. Also, the GI50 with COLO 205 is 27.4 µM (inactive).
Consider `CCCCCCOC(=O)/C=C/[C@]1(CO)C/C(=C/CC(C(C)C)C(C)C)C(=O)O1`, for which the GI50 in the assay on A498 was 4.82 µM (inactive); with NCI-H23, 12.2 µM (inactive); with TK-10, 1.77 µM (inactive); in the assay with M14, 12.1 µM (inactive); with SW-620 it was 12.5 µM (inactive); with 786-0, 4.36 µM (inactive). Further, the GI50 in the assay on BT-549 is 10.5 µM (inactive); in the assay with Malme-3M, 12.2 µM (inactive); in the assay on SK-OV-3, 18.2 µM (inactive); in the assay on OVCAR-3, 11.9 µM (inactive); in the assay on NCI-H522, 12.3 µM (inactive); with NCI-H460, 1.74 µM (inactive). The GI50 is 14.6 µM in the assay with HCT-15; 12.1 µM (inactive) in the assay with HOP-92; 2.13 µM (inactive) with SK-MEL-5; 4.75 µM (inactive) in the assay with Hs-578T; 15.1 µM (inactive) with IGROV-1; 14.2 µM (inactive) in the assay on SNB-75.
